For one data set, the target named is T1, human A2A receptor (Homo sapiens, UniProt P29274).
T1 construct: expressed in transfected cells; host or cells: HEK293
The data set is described as follows: functional cAMP (HTRF) assay, recombinant HEK293 cells expressing human A2A receptor, agonist NECA. It is filed as cell-based. (In general: Time-resolved FRET reads energy transfer from a long-lived donor to a nearby acceptor.)

The target of the next data set is T2, human A1 receptor (Homo sapiens, UniProt P30542).
T2 construct: expressed in transfected cells; host or cells: CHO
T2 sequence (P30542 1-326): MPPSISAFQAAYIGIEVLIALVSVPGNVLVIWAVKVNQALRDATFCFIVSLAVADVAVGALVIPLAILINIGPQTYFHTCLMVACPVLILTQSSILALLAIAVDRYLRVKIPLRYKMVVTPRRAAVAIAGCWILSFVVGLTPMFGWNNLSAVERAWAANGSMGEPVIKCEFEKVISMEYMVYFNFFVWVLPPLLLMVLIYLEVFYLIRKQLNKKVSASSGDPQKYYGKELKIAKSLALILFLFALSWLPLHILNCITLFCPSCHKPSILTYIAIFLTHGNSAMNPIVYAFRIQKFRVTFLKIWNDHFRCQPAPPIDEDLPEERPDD
The data set is described as follows: functional cAMP (HTRF) assay, recombinant CHO cells expressing human A1 receptor, forskolin, agonist CPA. It is filed as cell-based. A digest of the protocol:
(§1)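 Recombinant CHO lines carrying either receptor receive forskolin, compound and the matching agonist, CPA or IB-MECA. After 30 min, HTRF reagents are added and cAMP is quantified. Values are normalized to inhibitor and neutral DMSO controls, then fitted.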

Data set [1] in a line: pharmacokinetic properties in mouse after single intravenous and oral administration. It is filed as in vivo. The following applies: PK data in mouse; for clearance / half-life / Cmax / Vd: female, plasma, 0.2 mg/kg; for Cmax: dose-normalized to 1 mg/kg; for Vd: read-out: Vss. An excerpt: The objective of the study was to obtain information on the pharmacokinetic properties of the compounds of the present invention in female Wistar rats/mice following single intravenous and oral administration.
Female Wistar rats/mice (n=6) received either a single intravenous (bolus) injection or an oral administration (by gavage) of the tested compound.
The concentrations of the compounds in plasma, feces were quantified using an UPLC method with tandem mass spectrometric detection (LC-MS/MS) previously developed at the ‘Institute of Drug Metabolism and Pharmacokinetics’. The LC-MS/MS system consisted of a Waters Acquity UPLC coupled to an AB Sciex mass spectrometer API 5500 Q-trap. […] The detection of the compounds was performed using multiple reaction monitoring in the positive ionization mode. Plasma samples were spiked with internal standard (20 μl) and the analyte was extracted from the matrix using tertiary-butyl methyl ether (tBME). The organic phase was evaporated to dryness under a stream of nitrogen. The residue was dissolved in acetonitrile/0.1% formic acid for LC-MS/MS analysis. Feces samples were homogenized with 4-times their volume of an ethanol/water mixture (4:1, v/v). Aliquots of the aqueous-ethanolic extracts were spiked with internal standard, diluted with acetonitrile/water (1:1, v/v) and directly injected into the LC-MS/MS system.
Pharmacokinetic parameters Cmax and tmax were taken from the observed data. […] AUC values were calculated by non-compartmental analysis using the linear up/log down method. Numerical data for mean plasma concentrations and derived pharmacokinetic parameters were rounded to 3 significant digits for presentation.

A further data set addresses T3, A2B receptors (Homo sapiens, UniProt P29275).
T3 sequence (P29275 1-332): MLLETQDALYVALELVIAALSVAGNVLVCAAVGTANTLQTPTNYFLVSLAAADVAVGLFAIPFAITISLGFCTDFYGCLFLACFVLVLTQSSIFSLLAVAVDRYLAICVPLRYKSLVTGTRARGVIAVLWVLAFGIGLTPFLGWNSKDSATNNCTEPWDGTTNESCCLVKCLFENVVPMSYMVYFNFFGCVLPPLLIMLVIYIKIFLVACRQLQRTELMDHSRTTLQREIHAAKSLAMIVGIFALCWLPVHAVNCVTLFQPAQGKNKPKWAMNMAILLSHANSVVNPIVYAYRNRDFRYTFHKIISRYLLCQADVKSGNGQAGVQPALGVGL
The data set is described as follows: functional cAMP (HTRF) assay, recombinant HEK293 cells expressing human A2B receptor, agonist NECA. Type of data set: cell-based. The arrangement: expressed in transfected cells; host or cells: HEK293.

Another data set deals with T4, human A3 receptor (Homo sapiens, UniProt P0DMS8).
T4 construct: expressed in transfected cells; host or cells: CHO
T4 sequence (P0DMS8 1-318): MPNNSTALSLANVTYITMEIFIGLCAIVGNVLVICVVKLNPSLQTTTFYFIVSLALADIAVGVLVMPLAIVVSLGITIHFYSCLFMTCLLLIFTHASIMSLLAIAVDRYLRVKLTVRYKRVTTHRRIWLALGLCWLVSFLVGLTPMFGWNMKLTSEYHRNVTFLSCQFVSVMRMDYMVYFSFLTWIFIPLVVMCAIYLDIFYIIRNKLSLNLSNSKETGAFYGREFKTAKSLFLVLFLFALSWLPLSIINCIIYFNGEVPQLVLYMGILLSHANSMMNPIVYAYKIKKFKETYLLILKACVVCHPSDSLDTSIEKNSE
Briefly: functional cAMP (HTRF) assay, recombinant CHO cells expressing human A3 receptor, forskolin, agonist IB-MECA. It is filed as cell-based. Put shortly:
as §1

T1 sequence (P29274 whole entry): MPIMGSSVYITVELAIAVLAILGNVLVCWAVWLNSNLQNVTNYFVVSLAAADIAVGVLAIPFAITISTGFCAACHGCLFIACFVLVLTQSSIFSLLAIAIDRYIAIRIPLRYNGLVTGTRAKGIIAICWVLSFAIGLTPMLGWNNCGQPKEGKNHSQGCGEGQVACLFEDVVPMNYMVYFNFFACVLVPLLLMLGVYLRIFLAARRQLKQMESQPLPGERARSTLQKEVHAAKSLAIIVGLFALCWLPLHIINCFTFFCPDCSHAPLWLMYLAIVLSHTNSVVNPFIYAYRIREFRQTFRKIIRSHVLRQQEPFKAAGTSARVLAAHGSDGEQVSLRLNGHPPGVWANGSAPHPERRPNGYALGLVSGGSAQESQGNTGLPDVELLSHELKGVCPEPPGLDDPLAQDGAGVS

In general, IC50 refers to the concentration needed to halve the response being measured. Usually half-life stands for how long it takes for the measured level to halve. Higher therefore signals slow loss. For orientation: Cmax means the peak of the concentration-time curve. Turning to `COc1ccc(-c2cnn(C)c2)c2nc(NC(=O)c3ccnc(N4CC[C@@](C)(O)C4)c3)[nH]c12` [compound 107, 2-[(3R)-3-hydroxy-3-methylpyrrolidin-1-yl]-N-[7-methoxy-4-(1-methyl-1H-pyrazol-4-yl)-1H-1,3-benzodiazol-2-yl]pyridine-4-carboxamide], the half-inhibitory concentration (IC50) was less than 0.01 µM at human A2A receptor, greater than 1 µM at human A1 receptor, less than 1 µM at A2B receptors and less than 1 µM on human A3 receptor. The Feces iv in data set [1] (@0.2 (dose, unit not given)) is 34@0.2%. The compound further showed a clearance in data set [1] of 31.7 mL/min/kg. Also, the half-life in data set [1] is 37.3 min. In data set [1], this compound had a Cmax of 718 ng/mL. Also, in data set [1], the Vd turned out to be 1.54 L/kg.

`COc1ccc(-c2cnn(C)c2)c2nc(NC(=O)N3CC[C@]4(CCOC4)C3)[nH]c12` [compound 115, (5S)-N-[7-methoxy-4-(1-methyl-1H-pyrazol-4-yl)-1H-1,3-benzodiazol-2-yl]-2-oxa-7-azaspiro[4.4]nonane-7-carboxamide]: the Feces iv in data set [1] (@0.2 (dose, unit not given)) is recorded as 8.6@0.2%. For the same compound, in data set [1], the clearance was 5.4 mL/min/kg, the half-life was 59.3 min, the Cmax came to 2450 ng/mL and the Vd worked out at 0.425 L/kg.

Take `COc1ccc(-c2cnn(C)c2)c2nc(NC(=O)N3CCC(C)(O)CC3)[nH]c12` [compound 22, 4-Hydroxy-4-methyl-piperidine-1-carboxylic acid [7-methoxy-4-(1-methyl-1H-pyrazol-4-yl)-1H-benzoimidazol-2-yl]-amide]: the Feces iv in data set [1] (@0.2 (dose, unit not given)) is reported as 46@0.2%. Further, in data set [1], the clearance is 19.5 mL/min/kg, the half-life is 52 min, the maximum concentration (Cmax) was found to be 1320 ng/mL and the Vd is 1.02 L/kg.

In the case of `COc1ccc(N2CCOCC2)c2nc(NC(=O)c3ccnc(N4CCOCC4)c3)[nH]c12` [compound 23, N-(7-Methoxy-4-morpholin-4-yl-1H-benzoimidazol-2-yl)-2-morpholin-4-yl-isonicotinamide], the Feces iv in data set [1] (@0.2 (dose, unit not given)) was 11@0.2%. In data set [1], the clearance is 10.3 mL/min/kg, the half-life is 103 min, the highest level (Cmax) was 733 ng/mL and the Vd was 1.54 L/kg.

Consider `COc1ccc(N2CCOCC2)c2nc(NC(=O)N3CCC(C)(O)CC3)[nH]c12` [compound 21, 4-hydroxy-N-(7-methoxy-4-morpholino-1H-benzimidazol-2-yl)-4-methyl-piperidine-1-carboxamide], for which, in data set [1] (@0.08 (dose, unit not given)), the Feces iv was 38@0.08%. Also, in data set [1], the clearance is 12.7 mL/min/kg, the half-life is 50.3 min, the Cmax turned out to be 2650 ng/mL and the Vd was 0.508 L/kg.

As for `COc1ccc(C2=CCOCC2)c2nc(NC(=O)C3CC3)[nH]c12` [compound 314, N-[4-(3,6-dihydro-2H-pyran-4-yl)-7-methoxy-1H-1,3-benzodiazol-2-yl]cyclopropanecarboxamide], the IC50 was less than 0.1 µM at human A2A receptor, greater than 1 µM at human A1 receptor, less than 1 µM at A2B receptors and less than 1 µM on human A3 receptor.

Regarding `COCCn1cc(C(=O)Nc2nc3c(-c4ccnc5[nH]ccc45)ccc(OC)c3[nH]2)cn1` [compound 278, N-(7-methoxy-4-{1H-pyrrolo[2,3-b]pyridin-4-yl}-1H-1,3-benzodiazol-2-yl)-1-(2-methoxyethyl)-1H-pyrazole-4-carboxamide], the IC50 on human A2A receptor was less than 0.1 µM; on human A1 receptor, greater than 1 µM; on A2B receptors, less than 0.1 µM; on human A3 receptor, less than 1 µM.

Turning to `COCCn1cc(C(=O)Nc2nc3c(C4CCOCC4)ccc(OC)c3[nH]2)cn1` [compound 225, N-[7-methoxy-4-(oxan-4-yl)-1H-1,3-benzodiazol-2-yl]-1-(2-methoxyethyl)-1H-pyrazole-4-carboxamide], the IC50 is less than 0.01 µM at human A2A receptor, greater than 1 µM on human A1 receptor, less than 0.1 µM at A2B receptors and greater than 1 µM at human A3 receptor.

As to `COc1ccc(-c2cnn(C)c2)c2nc(NC(=O)c3ccnc(N4CCOCC4)c3)[nH]c12` [compound 26, N-[7-Methoxy-4-(1-methyl-1H-pyrazol-4-yl)-1H-benzoimidazol-2-yl]-2-morpholin-4-yl-isonicotinamide], the IC50 was less than 0.01 µM at human A2A receptor, greater than 1 µM at human A1 receptor, greater than 1 µM at A2B receptors and less than 1 µM at human A3 receptor.

As to `COc1ccc(-c2ccccc2)c2nc(NC(=O)c3ccc(CN)cc3)[nH]c12` [compound 13, 4-Aminomethyl-N-(7-methoxy-4-phenyl-1H-benzoimidazol-2-yl)-benzamide], the IC50 on human A2A receptor is less than 0.01 µM; at human A1 receptor it was greater than 1 µM; at A2B receptors, less than 1 µM; on human A3 receptor, less than 1 µM.

Regarding `COc1ccc(-c2cnn(C)c2)c2nc(NC(=O)N3CC[C@@]4(CCOC4)C3)[nH]c12` [compound 116, (5R)-N-[7-methoxy-4-(1-methyl-1H-pyrazol-4-yl)-1H-1,3-benzodiazol-2-yl]-2-oxa-7-azaspiro[4.4]nonane-7-carboxamide], in data set [1] (@0.2 (dose, unit not given)), the Feces iv is 16.9@0.2%. For the same compound, in data set [1], the clearance was 12.3 mL/min/kg, the half-life was 58 min, the concentration peaked (Cmax) at 1130 ng/mL and the Vd was 0.917 L/kg.

For the compound `COc1ccc(-c2ccccc2F)c2nc(NC(=O)N3CCC(C)(O)CC3)[nH]c12` [compound 218, N-[4-(2-fluorophenyl)-7-methoxy-1H-1,3-benzodiazol-2-yl]-4-hydroxy-4-methylpiperidine-1-carboxamide], the IC50 at human A2A receptor is less than 0.01 µM; on human A1 receptor, less than 1 µM; at A2B receptors it was less than 0.1 µM; at human A3 receptor, greater than 1 µM.

In the case of `COc1ccc(-c2ccccc2)c2nc(NC(=O)N3CCC(F)(F)CC3)[nH]c12` [compound 287, 4,4-difluoro-N-(7-methoxy-4-phenyl-1H-1,3-benzodiazol-2-yl)piperidine-1-carboxamide], the IC50 is less than 0.1 µM on human A2A receptor, less than 1 µM on human A1 receptor, less than 0.1 µM on A2B receptors and greater than 1 µM at human A3 receptor.

Consider `COc1ccc(-c2ccccc2)c2nc(NC(=O)c3ccnc(N4CCOCC4)c3)[nH]c12` [compound 7, N-(7-Methoxy-4-phenyl-1H-benzoimidazol-2-yl)-2-morpholin-4-yl-isonicotinamide], for which the IC50 on human A2A receptor is less than 0.01 µM; on human A1 receptor it was greater than 1 µM; at A2B receptors, less than 1 µM; at human A3 receptor it was less than 0.1 µM.

In the case of `COc1ccc(-c2ccc(F)cc2)c2nc(NC(=O)N3CCC(C)(O)CC3)[nH]c12` [compound 144, N-[4-(4-fluorophenyl)-7-methoxy-1H-1,3-benzodiazol-2-yl]-4-hydroxy-4-methylpiperidine-1-carboxamide], the IC50 is less than 0.01 µM at human A2A receptor, less than 1 µM at human A1 receptor, less than 1 µM at A2B receptors and greater than 1 µM on human A3 receptor.

The record behind these values is patent US11453647B2, “Benzimidazole derivatives as adenosine receptor antagonists” (Merck Patent GmbH, priority 2017, dated 2022).
